Assay [1] deals with SK-BR-3 cells. The assay is described as follows: Assay for antiproliferative activity against SK-BR-3 cells (CellTiter-Lumi, ATP content). Conditions: for IC50: read-out: IC50 (nM), antiproliferative activity against SK-BR-3 cells. The format is cell-based. The method, then: The activity of the antibody-drug conjugate of the present invention can be determined by the assay for the in-vitro antiproliferative activity against SK-BR-3 cells of a camptothecin derivative as a small molecule toxin.
SK-BR-3 cells were seeded into a 384-well plate (Fisher 142762) at 3000 cells per well. The next day, serially diluted compounds were added, and 72 hours after the addition, CellTiter-Lumi (Beyotime C0068XL) was added to measure the ATP content in the cells. The growth of the cells was evaluated, and relative IC50 values of the compounds against cell growth was calculated.

For assay [2], the system named is SK-BR-3 cells with high expression of HER2. Nature of the assay: cells. The format is cell-based. Conditions: Homo sapiens, SK-BR-3, 144 h, read-out: IC50 (nM), antiproliferative activity of the antibody-drug conjugates against SK-BR-3 cells. An excerpt:
SK-BR-3 cells with high expression of HER2 were selected as cell strains for in-vitro activity detection in the experiment and were used for evaluating the dose-effect relationship of the antibody-drug conjugates (ADCs) of the present invention on cell killing.

[3] abbreviates: Homo sapiens, SK-BR-3, 72 hours after compound addition, relative IC50.

Like-named read-outs stand apart in the source and are kept apart here. Numbered stars: 1 amine (or outer) side, 2 acyl side, 3 side chain; on linkers, the order of the positions; unused ones are H or OH. Square brackets hold non-standard residues; d marks the D form. Peptide text beside a SMILES is read from it. * marks the point of attachment. Exatecan = CC[C@@]1(O)C(=O)OCc2c1cc1n(c2=O)Cc2c-1nc1cc(F)c(C)c3c1c2[C@@H](N*)CC3; Hexanoyl(6-maleimido) = O=C1C=CC(=O)N1CCCCCC(=O)*; NHCH2OCH2CO = O=C(COCN[*:1])[*:2]

With `CC[C@@]1(O)C(=O)OCc2c1cc1n(c2=O)Cc2c-1nc1cc(F)c(C)c3c1c2[C@@H](NC(=O)[C@H](O)C1CC1)CS3` [Compound 49], the IC50 (usually the concentration needed to halve the response being measured) in assay [1] (Homo sapiens, SK-BR-3, 72 h) was 7.32 nM.

With `CC[C@@]1(O)C(=O)OCc2c1cc1n(c2=O)Cc2c-1nc1cc(F)c(C)c3c1c2[C@@H](N)CS3` [Compound 1-2], the IC50 in assay [1] (Homo sapiens, SK-BR-3, 72 h) came out at 1.73 nM. For the same molecule, in assay [1] (SK-BR-3 antiproliferative activity, relative to exatecan), the “fold more active than exatecan” value was found to be 2 fold.

Turning to `CC[C@@]1(O)C(=O)OCc2c1cc1n(c2=O)Cc2c-1nc1cc(F)c(C)c3c1c2C(O)CS3` (some centres unmarked) [Compound 20], the IC50 in assay [1] (Homo sapiens, SK-BR-3, 72 h) was determined as 5.83 nM. On to `CC[C@@]1(O)C(=O)OCc2c1cc1n(c2=O)Cc2c-1nc1cc(F)c(C)c3c1c2[C@@H](NC(=O)[C@H](C)O)CS3` [Compound 44], for which, in assay [1] (Homo sapiens, SK-BR-3, 72 h), the IC50 stood at 6.29 nM. Same read-out and setting: the same measure for `CC[C@@]1(O)C(=O)OCc2c1cc1n(c2=O)Cc2c-1nc1cc(F)c(OC)c3c1c2[C@@H](NC(=O)CO)CS3` [Compound 35]: 6.53 nM; for `CC[C@@]1(O)C(=O)OCc2c1cc1n(c2=O)Cc2c-1nc1cc(F)c(C)c3c1c2[C@@H](NC(=O)[C@@H](O)C1CC1)CS3` [Compound 48]: 6.73 nM. On the same count and under the same terms, in the case of `Cc1c(F)cc2nc3c(c4c2c1SC[C@@H]4NC(=O)CO)Cn1c-3cc2c(c1=O)COC(=O)[C@]2(O)CCF` [Compound 39] it was 4.78 nM. Turning to `CC[C@@]1(O)C(=O)OCc2c1cc1n(c2=O)Cc2cc3c(CN(C)C)c(O)ccc3nc2-1` [Topotecan, reference compound], the IC50 in assay [1] (setting [3]) amounted to 58.3 nM.

In the case of `CC[C@@]1(O)C(=O)OCc2c1cc1n(c2=O)Cc2c-1nc1cc(F)c(C)c3c1c2[C@@H](N)CC3` [Exatecan, reference compound], the IC50 was 5.35 nM in assay [1] (Homo sapiens, SK-BR-3, 72 h) and 0.73 nM in assay [2]. For `CC[C@@]1(O)C(=O)OCc2c1cc1n(c2=O)Cc2c-1nc1cc(F)c(C)c3c1c2[C@@H](N)CO3` [Compound 7-2], in assay [1] (Homo sapiens, SK-BR-3, 72 h), the IC50 stood at 2.68 nM. Take `CC[C@@]1(O)C(=O)OCc2c1cc1n(c2=O)Cc2c-1nc1cc(F)c(C)c3c1c2[C@H](N)CS3` [Compound 1-1]: the IC50 in assay [1] (Homo sapiens, SK-BR-3, 72 h) was 5.81 nM. In the case of `CC[C@@]1(O)C(=O)OCc2c1cc1n(c2=O)Cc2c-1nc1cc(F)c(C)c3c1c2[C@@H](NC(=O)COCNC(=O)CNC(=O)[C@H](Cc1ccccc1)NC(=O)CNC(=O)CNC(=O)CCCCCN1C(=O)C=CC1=O)CC3` [Deruxtecan, reference compound] ({Hexanoyl(6-maleimido)}-GGFG[NHCH2OCH2CO]-Exatecan), the IC50 in assay [1] (SK-BR-3, 72 hours after compound addition, relative IC50) came to 13.6 nM. `CCc1c(F)cc2nc3c(c4c2c1SC[C@@H]4N)Cn1c-3cc2c(c1=O)COC(=O)[C@]2(O)CC` [Compound 3-2]: the IC50 in assay [1] (setting [3]) worked out at 2.85 nM. Consider `CC[C@@]1(O)C(=O)OCc2c1cc1n(c2=O)Cc2c-1nc1cc(F)c(C)c3c1c2[C@@H](NC)CS3` [Compound 14-2], for which the IC50 in assay [1] (Homo sapiens, SK-BR-3, 72 h) stood at 4.13 nM.

Turning to `CC[C@@]1(O)C(=O)OCc2c1cc1n(c2=O)Cc2c-1nc1cc(F)c(OC)c3c1c2[C@@H](N)CS3` [Compound 4-2], the IC50 in assay [1] (Homo sapiens, SK-BR-3, 72 h) stood at 2.74 nM.

Turning to `CC[C@@]1(O)C(=O)OCc2c1cc1n(c2=O)Cc2c-1nc1cc(F)c(C)c3c1c2[C@@H](NC(=O)CO)CO3` [Compound 41], the IC50 in assay [1] (Homo sapiens, SK-BR-3, 72 h) was found to be 6.47 nM. On the same count and under the same terms, in the case of `CCc1c(F)cc2nc3c(c4c2c1SC[C@@H]4NC(=O)CO)Cn1c-3cc2c(c1=O)COC(=O)[C@]2(O)CC` [Compound 34] it was 5.84 nM; in that of `CC[C@@]1(O)C(=O)OCc2c1cc1n(c2=O)Cc2c-1nc1cc(F)c(C)c3c1c2C(N)CS3` (stereo partly drawn) [Compound 1, (9S)-1-amino-9-ethyl-5-fluoro-9-hydroxy-4-methyl-1,9,12,15-tetrahydro-13H-pyrano[3′, 4′:6,7]indolizino[1,2-b]thiopyrano[4,3,2-de]quinoline-10,13(2H)-dione], 2.98 nM.

The values above are taken from patent US20230416270A1, “NOVEL CAMPTOTHECIN DERIVATIVE, COMPOSITION COMPRISING SAME AND USE THEREOF” (priority 2020, published 2023).
